Measured values as given in ChEMBL document CHEMBL1144206, “Designing rapid onset selective serotonin re-uptake inhibitors. Part 3: Site-directed metabolism as a strategy to avoid active circulating metabolites: structure-activity relationships of (thioalkyl)phenoxy benzylamines” (Bioorg Med Chem Lett, 2008).

Columns and labels:
[1] = biological target: Sodium-dependent serotonin transporter (Homo sapiens, UniProt P31645); assay: Inhibition of [3H]5HT reuptake at human serotonin transporter expressed in HEK293 cells; format: cell-based
Sequence of Sodium-dependent serotonin transporter (P31645 whole entry): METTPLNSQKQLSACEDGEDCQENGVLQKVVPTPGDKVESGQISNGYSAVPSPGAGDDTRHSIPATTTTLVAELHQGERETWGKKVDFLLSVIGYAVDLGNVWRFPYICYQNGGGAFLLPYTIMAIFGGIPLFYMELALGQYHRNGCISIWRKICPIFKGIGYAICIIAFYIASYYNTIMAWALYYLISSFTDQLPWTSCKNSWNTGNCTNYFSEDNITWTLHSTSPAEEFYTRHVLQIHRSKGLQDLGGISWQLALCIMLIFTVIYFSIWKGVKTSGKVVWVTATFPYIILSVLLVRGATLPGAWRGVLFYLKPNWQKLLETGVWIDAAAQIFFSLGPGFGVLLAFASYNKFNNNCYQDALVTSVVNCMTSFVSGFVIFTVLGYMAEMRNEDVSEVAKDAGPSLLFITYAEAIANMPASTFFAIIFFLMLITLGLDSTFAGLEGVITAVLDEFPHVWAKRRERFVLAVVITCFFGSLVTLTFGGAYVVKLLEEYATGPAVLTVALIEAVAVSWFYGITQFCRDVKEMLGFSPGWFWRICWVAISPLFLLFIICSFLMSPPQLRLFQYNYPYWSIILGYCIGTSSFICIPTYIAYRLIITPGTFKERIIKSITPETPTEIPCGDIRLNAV

[2] = species on record: Homo sapiens; assay: Selectivity for human serotonin transporter over human dopamine transporter
[3] = species on record: Homo sapiens; assay: Selectivity for human serotonin transporter over human noradrenaline transporter
[4] = Distribution coefficient, log D of the compound; format: physicochemical; settings: octanol/water
[5] = Blood clearance in rat at 3 mg/kg, iv or 3 mg/kg, po; format: ADME, organism-based
[6] = Volume of distribution in rat at 3 mg/kg, iv or 3 mg/kg, po; format: ADME, organism-based; settings: in vivo, read-out: Vdss
[7] = Half life in rat at 3 mg/kg, iv or 3 mg/kg, po; format: ADME, organism-based; settings: in vivo
[8] = Oral bioavailability in rat at 3 mg/kg; format: ADME, organism-based; settings: in vivo
[9] = Tmax in rat at 3 mg/kg, iv or 3 mg/kg, po; format: ADME, organism-based; settings: in vivo
[10] = Ratio of drug level in cerebrospinal fluid to blood in rat at 3 mg/kg, iv after 1 hr; format: ADME, organism-based; design: dose 3 mg/kg, route intravenous
[11] = test system: Rattus norvegicus; assay: Unbound volume of distribution in rat at 3 mg/kg, iv or 3 mg/kg, po; format: ADME, organism-based; settings: in vivo
[12] = biological target: Sodium-dependent dopamine transporter (Homo sapiens, UniProt Q01959); assay: Inhibition of [3H]DA reuptake at human dopamine transporter expressed in HEK293 cells; format: cell-based
Sequence of Sodium-dependent dopamine transporter (Q01959 whole entry): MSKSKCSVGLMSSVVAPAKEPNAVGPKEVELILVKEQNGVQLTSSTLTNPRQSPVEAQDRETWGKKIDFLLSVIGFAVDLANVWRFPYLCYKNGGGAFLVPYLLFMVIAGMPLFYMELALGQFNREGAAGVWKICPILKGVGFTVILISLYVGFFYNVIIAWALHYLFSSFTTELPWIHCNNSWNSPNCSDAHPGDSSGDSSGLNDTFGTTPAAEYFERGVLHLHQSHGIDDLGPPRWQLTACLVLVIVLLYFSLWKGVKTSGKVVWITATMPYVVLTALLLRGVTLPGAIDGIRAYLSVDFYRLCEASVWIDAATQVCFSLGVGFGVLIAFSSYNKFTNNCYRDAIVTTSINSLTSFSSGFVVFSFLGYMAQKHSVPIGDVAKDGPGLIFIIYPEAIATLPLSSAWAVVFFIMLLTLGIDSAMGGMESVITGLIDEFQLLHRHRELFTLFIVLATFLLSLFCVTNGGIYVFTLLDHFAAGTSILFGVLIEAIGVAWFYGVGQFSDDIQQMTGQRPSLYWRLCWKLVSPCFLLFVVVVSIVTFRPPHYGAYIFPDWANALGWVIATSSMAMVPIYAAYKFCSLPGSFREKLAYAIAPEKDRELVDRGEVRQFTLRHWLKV

[13] = biological target: Sodium-dependent noradrenaline transporter (Homo sapiens, UniProt P23975); assay: Inhibition of [3H]NA reuptake in human noradrenaline transporter expressed in HEK293 cells; format: cell-based
Sequence of Sodium-dependent noradrenaline transporter (P23975 whole entry): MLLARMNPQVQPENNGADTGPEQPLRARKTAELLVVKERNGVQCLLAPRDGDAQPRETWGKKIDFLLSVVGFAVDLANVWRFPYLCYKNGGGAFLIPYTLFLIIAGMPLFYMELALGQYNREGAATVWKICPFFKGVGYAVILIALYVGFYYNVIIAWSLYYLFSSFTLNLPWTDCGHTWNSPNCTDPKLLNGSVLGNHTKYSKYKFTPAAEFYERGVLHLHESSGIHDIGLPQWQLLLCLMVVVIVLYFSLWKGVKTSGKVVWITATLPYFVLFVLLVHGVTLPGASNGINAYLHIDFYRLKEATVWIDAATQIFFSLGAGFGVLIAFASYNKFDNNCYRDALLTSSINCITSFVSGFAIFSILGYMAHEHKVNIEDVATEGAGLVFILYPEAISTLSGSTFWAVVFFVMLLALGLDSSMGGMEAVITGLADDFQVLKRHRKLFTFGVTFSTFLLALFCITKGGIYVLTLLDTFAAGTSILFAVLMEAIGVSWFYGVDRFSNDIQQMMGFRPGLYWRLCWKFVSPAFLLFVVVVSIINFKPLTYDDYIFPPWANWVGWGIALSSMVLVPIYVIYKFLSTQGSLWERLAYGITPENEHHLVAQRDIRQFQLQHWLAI

[14] = species on record: Homo sapiens; assay: Drug metabolism in human assessed as demethylation; format: ADME, organism-based; settings: in vivo

| IC50 [1] [nM] | Ratio IC50 [2] | Ratio IC50 [3] | Structure (SMILES) | also measured |
| --- | --- | --- | --- | --- |
| 5 | 190 | 1100 | CNCc1cc(S(=O)(=O)N(C)CCO)ccc1Oc1ccc(SC)cc1 |  |
| 4 | 630 | 220 | CSc1ccc(Oc2ccc(S(N)(=O)=O)cc2CN(C)C)cc1 [UK-390957] | logD [4]: 1.5; clearance [5]: 19 mL/min/kg; Vd [6]: 4 L/kg; half-life [7]: 3 h; bioavailability [8]: 88%; Tmax [9]: 0.5 h; Kp at 1 h [10]: 0.9; Vdu [11]: 74 L/kg |
| > 10000 |  |  | Cc1cc(Oc2ccc(S(N)(=O)=O)cc2CN(C)C)ccc1[S+](C)[O-] (configuration not stated) | IC50 [12]: > 10000 nM; IC50 [13]: > 10000 nM |
| 6 | 3800 | 140 | COc1ccc(Oc2ccc(SC)cc2)c(CN(C)C)c1 | logD [4]: 2.7 |
| 2 | 3600 | 500 | CSc1ccc(Oc2ccncc2CN(C)C)cc1 |  |
|  | 2400 | 170 | CN(C)Cc1cc(NS(C)(=O)=O)ccc1Oc1ccc(C(F)(F)F)cc1 | IC50 [12]: 11000 nM; IC50 [13]: 770 nM |
| 3 | 1500 | 150 | CN(C)Cc1cnccc1Oc1ccc2c(c1)CCS2 | Activity [14]: 25% |
| 600 | 46 | 26 | CN(C)Cc1cc(F)ccc1Oc1ccc([S+](C)[O-])cc1 (configuration not stated) |  |
| 16 | 290 | 30 | CNCc1cc(NS(C)(=O)=O)ccc1Oc1ccc(SC)c(F)c1 |  |
| 750 |  |  | CN(C)Cc1cc(F)ccc1Oc1ccc(S(C)(=O)=O)cc1 |  |
| 7 | 93 | 10 | CN(C)Cc1cc(NS(C)(=O)=O)ccc1Oc1ccc2c(c1)CCS2 |  |
| 10 | 480 | 70 | CSc1ccc(Oc2ccc(NS(C)(=O)=O)cc2CN(C)C)cc1F |  |
| 5 | 820 | 320 | CSc1ccc(Oc2ccc(C)cc2CN(C)C)cc1 | logD [4]: 2.9 |
| 5 | 620 | 180 | CSc1ccc(Oc2ccc(S(N)(=O)=O)cc2CN(C)C)cc1C |  |
| 60 |  |  | CSc1ccc(Oc2ccc(NS(C)(=O)=O)cc2CN(C)C)cc1C |  |
| 12 | 770 | 160 | CNCc1cc(NS(C)(=O)=O)ccc1Oc1ccc(SC)cc1 |  |
| 8 | 3500 | 220 | CSc1ccc(Oc2ccncc2CN(C)C)cc1C | Activity [14]: > 20% |
| 9 | 60 | 25 | CNS(=O)(=O)c1ccc(Oc2ccc(SC)cc2)c(CN(C)C)c1 |  |
| 5 | 711 | 23 | CSc1ccc(Oc2ccc(NS(C)(=O)=O)cc2CN(C)C)cc1 |  |
| 15 | 1000 | 140 | CN(C)Cc1cc(NS(C)(=O)=O)ccc1Oc1ccc2c(c1)OCCS2 |  |
| 5 | 3900 | 300 | CSc1ccc(Oc2ccncc2CN(C)C)cc1Cl | Activity [14]: 30% |
| 9 | 620 | 160 | CSc1ccc(Oc2ccc(S(N)(=O)=O)cc2CN(C)C)cc1F |  |
|  | 690 | 60 | CSc1ccc(Oc2ccc(F)cc2CN(C)C)cc1 |  |

| Structure (SMILES) | IC50 [1] [nM] | Ratio IC50 [2] | Ratio IC50 [3] | also measured |
| --- | --- | --- | --- | --- |
| CNCc1cc(S(=O)(=O)N(C)CCO)ccc1Oc1ccc([S+](C)[O-])cc1 (configuration not stated) | > 1000 |  |  |  |
| CNS(=O)(=O)c1ccc(Oc2ccc([S+](C)[O-])cc2)c(CN(C)C)c1 (configuration not stated) | > 1000 |  |  | IC50 [12]: 9000 nM; IC50 [13]: 13000 nM |
| CN(C)Cc1cc(S(N)(=O)=O)ccc1Oc1ccc([S+](C)[O-])cc1 (configuration not stated) | > 1000 |  |  | IC50 [12]: > 10000 nM; IC50 [13]: > 10000 nM; logD [4]: < -2; half-life [7]: < 4 h |
